Article PMC11277489, “Novel Piperazine Derivatives of Vindoline as Anticancer Agents” (International Journal of Molecular Sciences, 2024)
Like-named read-outs stand apart in the source and are kept apart here.

Columns and labels:
Type in all cases: cell-based
[1] = system: CCRF-CEM; experiment: NCI60 five-dose screen, Leukemia; details: Homo sapiens, Leukemia, five-dose screen, read-out: GI50
[2] = system: MDA-MB-468; experiment: NCI60 five-dose screen, Breast Cancer; details: Homo sapiens; MDA-MB-468, Breast Cancer; five-dose screen; read-out: GI50
[3] = system: UO-31; experiment: NCI60 five-dose screen, Renal Cancer; details: Homo sapiens; UO-31, Renal Cancer; five-dose screen; read-out: GI50
[4] = system: MCF7; experiment: NCI60 five-dose screen, Breast Cancer; details: Homo sapiens; MCF7, Breast Cancer; five-dose screen; read-out: GI50
[5] = system: OVCAR-5; experiment: NCI60 five-dose screen, Ovarian Cancer; details: Homo sapiens; OVCAR-5, Ovarian Cancer; five-dose screen; read-out: GI50
[6] = system: IGROV1; experiment: NCI60 five-dose screen, Ovarian Cancer; details: Homo sapiens, IGROV-1; IGROV1, Ovarian Cancer; five-dose screen; read-out: GI50
[7] = system: RXF 393; experiment: NCI60 five-dose screen, Renal Cancer; details: Homo sapiens, RXF 393, Renal Cancer
[8] = system: NCI-H322M; experiment: NCI60 five-dose screen, Non-small Cell Lung Cancer; details: Homo sapiens, Non-small Cell Lung Cancer, five-dose screen, read-out: GI50
[9] = system: TK-10; experiment: NCI60 five-dose screen, Renal Cancer; details: Homo sapiens; TK-10, Renal Cancer; five-dose screen; read-out: GI50
[10] = system: MDA-MB-435; experiment: NCI60 five-dose screen, Melanoma; details: Homo sapiens; MDA-MB-435, Melanoma; five-dose screen; read-out: GI50
[11] = system: OVCAR-8; experiment: NCI60 five-dose screen, Ovarian Cancer; details: Homo sapiens; OVCAR-8, Ovarian Cancer; five-dose screen; read-out: GI50
[12] = system: DU-145; experiment: NCI60 five-dose screen, Prostate Cancer; details: Homo sapiens; DU-145, Prostate Cancer; five-dose screen; read-out: GI50
[13] = system: SF-295; experiment: NCI60 five-dose screen, CNS Cancer; details: Homo sapiens; SF-295, CNS Cancer; five-dose screen; read-out: GI50
[14] = system: SK-MEL-28; experiment: NCI60 five-dose screen, Melanoma; details: Homo sapiens; SK-MEL-28, Melanoma; five-dose screen; read-out: GI50
[15] = system: HT29; experiment: NCI60 five-dose screen, Colon Cancer; details: Homo sapiens, HT-29; HT29, Colon Cancer; five-dose screen; read-out: GI50
[16] = system: SR; experiment: NCI60 five-dose screen, Leukemia; details: Homo sapiens, Leukemia, five-dose screen, read-out: GI50
[17] = system: SNB-19; experiment: NCI60 five-dose screen, CNS Cancer; details: Homo sapiens; SNB-19, CNS Cancer; five-dose screen; read-out: GI50
[18] = system: SN12C; experiment: NCI60 five-dose screen, Renal Cancer; details: Homo sapiens, Renal Cancer, five-dose screen, read-out: GI50
[19] = system: HOP-92; experiment: NCI60 five-dose screen, Non-small Cell Lung Cancer; details: Homo sapiens; HOP-92, Non-small Cell Lung Cancer; five-dose screen; read-out: GI50
[20] = system: 786–0; experiment: NCI60 five-dose screen, Renal Cancer; details: Homo sapiens; 786–0, Renal Cancer; five-dose screen; read-out: GI50
[21] = system: 60 human tumor cell lines (NCI60); experiment: NCI60 five-dose screen, whole panel and sub-panel means; details: Homo sapiens
[22] = system: CAKI-1; experiment: NCI60 five-dose screen, Renal Cancer; details: Homo sapiens; CAKI-1, Renal Cancer; five-dose screen; read-out: GI50
[23] = system: MALME-3M; experiment: NCI60 five-dose screen, Melanoma; details: Homo sapiens; MALME-3M, Melanoma; five-dose screen; read-out: GI50
[24] = system: HCT-116; experiment: NCI60 five-dose screen, Colon Cancer; details: Homo sapiens; HCT-116, Colon Cancer; five-dose screen; read-out: GI50
[25] = system: M14; experiment: NCI60 five-dose screen, Melanoma; details: Homo sapiens; M14, Melanoma; five-dose screen; read-out: GI50
[26] = system: HS 578T; experiment: NCI60 five-dose screen, Breast Cancer; details: Homo sapiens; HS 578T, Breast Cancer; five-dose screen; read-out: GI50
[27] = system: MDA-MB231ATCC; experiment: NCI60 five-dose screen, Breast Cancer; details: Homo sapiens, MDA-MB-231; MDA-MB231ATCC, Breast Cancer; five-dose screen; read-out: GI50
[28] = system: COLO 205; experiment: NCI60 five-dose screen, Colon Cancer; details: Homo sapiens; COLO 205, Colon Cancer; five-dose screen; read-out: GI50
[29] = system: SK-OV-3; experiment: NCI60 five-dose screen, Ovarian Cancer; details: Homo sapiens; SK-OV-3, Ovarian Cancer; five-dose screen; read-out: GI50
[30] = system: HCC-2998; experiment: NCI60 five-dose screen, Colon Cancer; details: Homo sapiens; HCC-2998, Colon Cancer; five-dose screen; read-out: GI50
[31] = system: MOLT-4; experiment: NCI60 five-dose screen, Leukemia; details: Homo sapiens; MOLT-4, Leukemia; five-dose screen; read-out: GI50
[32] = system: RPMI-8226; experiment: NCI60 five-dose screen, Leukemia; details: Homo sapiens; RPMI-8226, Leukemia; five-dose screen; read-out: GI50
[33] = system: KM12; experiment: NCI60 five-dose screen, Colon Cancer; details: Homo sapiens; KM12, Colon Cancer; five-dose screen; read-out: GI50
[34] = system: EKVX; experiment: NCI60 five-dose screen, Non-small Cell Lung Cancer; details: Homo sapiens, Non-small Cell Lung Cancer, five-dose screen, read-out: GI50
[35] = system: UACC-62; experiment: NCI60 five-dose screen, Melanoma; details: Homo sapiens; UACC-62, Melanoma; five-dose screen; read-out: GI50
[36] = 60 cell, mean over all 60 cell lines, read-out: GI50 Mean
[37] = mean over Breast Cancer panel, read-out: GI50 Mean
[38] = mean over CNS Cancer panel, read-out: GI50 Mean
[39] = mean over Colon Cancer panel, read-out: GI50 Mean
[40] = mean over Leukemia panel, read-out: GI50 Mean
[41] = mean over Melanoma panel, read-out: GI50 Mean
[42] = mean over Non-small Cell Lung Cancer panel, read-out: GI50 Mean
[43] = mean over Ovarian Cancer panel, read-out: GI50 Mean
[44] = mean over Prostate Cancer panel, read-out: GI50 Mean
[45] = mean over Renal Cancer panel, read-out: GI50 Mean

CC[C@]12C=CCN3CC[C@@]4(c5ccc(OC)cc5N(C)[C@H]4[C@@](O)(C(=O)OC)[C@@H]1OC(=O)CCC(=O)N1CCN(Cc4ccc(C(F)(F)F)cc4)CC1)[C@@H]32 [Compound 29]
GI50 [1]: 11.8 µM
GI50 [2]: 1.95 µM
GI50 [3]: 6.92 µM
GI50 [4]: 5.62 µM
GI50 [5]: 14.5 µM
GI50 [6]: 10.7 µM
GI50 [7]: 4.47 µM
GI50 [8]: 14.5 µM
GI50 [9]: 12.3 µM
GI50 [10]: 10.5 µM
GI50 [11]: 12 µM
GI50 [12]: 11.2 µM
GI50 [13]: 9.33 µM
GI50 [14]: 11.8 µM
GI50 [15]: 6.76 µM
GI50 [16]: 13.8 µM
GI50 [17]: 11.8 µM
GI50 [18]: 11.5 µM
GI50 [19]: 4.27 µM
GI50 [20]: 12.3 µM
GI50 [21, 36]: 9.76 µM
GI50 [21, 37]: 8.72 µM
GI50 [21, 38]: 11.1 µM
GI50 [21, 39]: 9.71 µM
GI50 [21, 40]: 9.07 µM
GI50 [21, 41]: 9.42 µM
GI50 [21, 42]: 10.4 µM
GI50 [21, 43]: 10.6 µM
GI50 [21, 44]: 7.3 µM
GI50 [21, 45]: 9.9 µM
GI50 [22]: 8.71 µM
GI50 [23]: 11.5 µM
GI50 [24]: 7.76 µM
GI50 [25]: 8.13 µM
GI50 [26]: 10.2 µM
GI50 [27]: 14.1 µM
GI50 [28]: 7.08 µM
GI50 [29]: 12.6 µM
GI50 [30]: 12.9 µM
GI50 [31]: 5.25 µM
GI50 [32]: 6.92 µM
GI50 [33]: 11.8 µM
GI50 [34]: 7.59 µM
GI50 [35]: 11 µM

CC[C@]12C=CCN3CC[C@@]4(c5ccc(OC)cc5N(C)[C@H]4[C@@](O)(C(=O)OC)[C@@H]1OC(=O)CCCN1CCN(Cc4ccc(C(F)(F)F)cc4)CC1)[C@@H]32 [Compound 23]
GI50 [1]: 2.04 µM
GI50 [2]: 1 µM
GI50 [3]: 1.58 µM
GI50 [4]: 1.55 µM
GI50 [5]: 1.62 µM
GI50 [6]: 1.78 µM
GI50 [7]: 1.35 µM
GI50 [8]: 2.24 µM
GI50 [9]: 1.66 µM
GI50 [10]: 1.48 µM
GI50 [11]: 1.82 µM
GI50 [12]: 1.58 µM
GI50 [13]: 1.78 µM
GI50 [14]: 1.62 µM
GI50 [15]: 1.66 µM
GI50 [16]: 1.66 µM
GI50 [17]: 1.58 µM
GI50 [18]: 2.09 µM
GI50 [19]: 1.51 µM
GI50 [20]: 1.48 µM
GI50 [21, 36]: 1.65 µM
GI50 [21, 37]: 1.53 µM
GI50 [21, 38]: 1.57 µM
GI50 [21, 39]: 1.64 µM
GI50 [21, 40]: 1.71 µM
GI50 [21, 41]: 1.62 µM
GI50 [21, 42]: 1.8 µM
GI50 [21, 43]: 1.77 µM
GI50 [21, 44]: 1.58 µM
GI50 [21, 45]: 1.63 µM
GI50 ([21]; on almost all cell lines, five-dose screen, read-out: GI50): < 2 µM
GI50 [22]: 1.48 µM
GI50 [23]: 1.58 µM
GI50 [24]: 1.7 µM
GI50 [25]: 1.55 µM
GI50 [26]: 1.51 µM
GI50 [27]: 1.74 µM
GI50 [28]: 1.58 µM
GI50 [29]: 2 µM
GI50 [30]: 1.51 µM
GI50 [31]: 1.15 µM
GI50 [32]: 2 µM
GI50 [33]: 1.74 µM
GI50 [34]: 1.7 µM
GI50 [35]: 1.66 µM
